Reference: patent publication US11083196B2, “Microbiocidal oxadiazole derivatives” (SYNGENTA PARTICIPATIONS AG, priority 2016, dated 2021)

Tested on: Glomerella lagenarium (Colletotrichum lagenarium)
Test: Fungicidal activity against Glomerella lagenarium (Colletotrichum lagenarium), liquid culture / cucumber / preventative (anthracnose)
Format: cell-based
Conditions: Colletotrichum orbiculare, liquid culture (PDB), growth inhibition measured photometrically 3-4 days after application, compared to untreated control
Procedure: Mycelia fragments or conidia suspensions of a fungus, prepared either freshly from liquid cultures of the fungus or from cryogenic storage, are directly mixed into nutrient broth. DMSO solutions of the test compound (max. 10 mg/ml) is diluted with 0.025% Tween20 by a factor of 50 and 10 μl of this solution is pipetted into a microtiter plate (96-well format). The nutrient broth containing the fungal spores/mycelia fragments is then added to give an end concentration of the tested compound. The test plates are incubated in the dark at 24° C. and 96% relative humidity. The inhibition of fungal growth is determined photometrically after 2 to 7 days, depending on the pathosystem, and percent antifungal activity relative to the untreated check is calculated. Conidia of the fungus from cryogenic storage are directly mixed into nutrient broth (PDB potato dextrose broth). After placing a (DMSO) solution of test compound into a microtiter plate (96-well format), the nutrient broth containing the fungal spores is added. The test plates are incubated at 24° C. and the inhibition of growth is measured photometrically 3-4 days after application.

SMILES	inhibition of growth at 20 ppm
COc1ccccc1C1CC(c2ccc(-c3noc(C(F)(F)F)n3)cc2)=NO1 (stereo not shown) [Compound A-48, 3-[4-[5-(2-methoxyphenyl)-4,5-dihydroisoxazol-3-yl]phenyl]-5-(trifluoromethyl)-1,2,4-oxadiazole]	≥ 80%
O=C(Nc1cccc(-c2ccc(-c3noc(C(F)(F)F)n3)cc2)n1)C(F)(F)F [Compound D-4, 2,2,2-trifluoro-N-[6-[4-[5-(trifluoromethyl)-1,2,4-oxadiazol-3-yl]phenyl]-2-pyridyl]acetamide]	≥ 80%
FC(F)(F)C1=NOC(c2ccc(-c3noc(C(F)(F)F)n3)cc2)C1 (stereo not shown) [Compound A-14, 5-(trifluoromethyl)-3-[4-[3-(trifluoromethyl)-4,5-dihydroisoxazol-5-yl]phenyl]-1,2,4-oxadiazole]	≥ 80%
O=C(Nc1ccc(-c2ccc(-c3noc(C(F)(F)F)n3)cc2)cn1)C(F)(F)F [Compound D-13, 2,2,2-trifluoro-N-[5-[4-[5-(trifluoromethyl)-1,2,4-oxadiazol-3-yl]phenyl]-2-pyridyl]acetamide]	≥ 80%
FC(F)(F)c1nc(-c2ccc(C3CC(C4CCCCC4)=NO3)cc2)no1 (stereo not shown) [Compound A-7, 3-[4-(3-cyclohexyl-4,5-dihydroisoxazol-5-yl)phenyl]-5-(trifluoromethyl)-1,2,4-oxadiazole]	≥ 80%
FC(F)(F)c1nc(-c2ccc(C3CC(c4ccncc4)=NO3)cc2)no1 (stereo not shown) [Compound A-49, 3-[4-[3-(4-pyridyl)-4,5-dihydroisoxazol-5-yl]phenyl]-5-(trifluoromethyl)-1,2,4-oxadiazole]	≥ 80%
COC(=O)C1(c2ccc(-c3noc(C(F)(F)F)n3)cc2)C(C)=C(C#N)C(=O)N1C (stereo not shown) [Compound A-41, methyl 4-cyano-1,3-dimethyl-5-oxo-2-[4-[5-(trifluoromethyl)-1,2,4-oxadiazol-3-yl]phenyl]pyrrole-2-carboxylate]	≥ 80%

Tested on: not given
Test: not given
Conditions: not given

SMILES	melting point
CCNc1ccc(-c2ccc(-c3noc(C(F)(F)F)n3)cc2)cn1 [Compound D-20, N-ethyl-5-[4-[5-(trifluoromethyl)-1,2,4-oxadiazol-3-yl]phenyl]pyridin-2-amine]	120 to 125 °C
O=C(Nc1cccc(-c2ccc(-c3noc(C(F)(F)F)n3)cc2)n1)C1CC1 [Compound D-14, N-[6-[4-[5-(trifluoromethyl)-1,2,4-oxadiazol-3-yl]phenyl]-2-pyridyl]cyclopropane carboxamide]	125 to 130 °C
O=C(Nc1cccc(-c2ccc(-c3noc(C(F)(F)F)n3)cc2)n1)C(F)(F)F [Compound D-4, 2,2,2-trifluoro-N-[6-[4-[5-(trifluoromethyl)-1,2,4-oxadiazol-3-yl]phenyl]-2-pyridyl]acetamide]	125 to 130 °C
FC(F)(F)C1=NOC(c2ccc(-c3noc(C(F)(F)F)n3)cc2)C1 (stereo not shown) [Compound A-14, 5-(trifluoromethyl)-3-[4-[3-(trifluoromethyl)-4,5-dihydroisoxazol-5-yl]phenyl]-1,2,4-oxadiazole]	65 to 69 °C
FC(F)(F)c1nc(-c2ccc(C3CC(c4ccccc4)=NO3)cc2)no1 (stereo not shown) [Compound A-50, 3-[4-(3-phenyl-4,5-dihydroisoxazol-5-yl)phenyl]-5-(trifluoromethyl)-1,2,4-oxadiazole]	139 to 142 °C
CCNC(=O)Nc1cccc(-c2ccc(-c3noc(C(F)(F)F)n3)cc2)n1 [Compound D-1, 1-ethyl-3-[6-[4-[5-(trifluoromethyl)-1,2,4-oxadiazol-3-yl]phenyl]-2-pyridyl]urea]	200 to 205 °C
FC(F)(F)c1nc(-c2ccc(-c3nc(-c4cccnc4)cs3)cc2)no1 [Compound C-12, 3-[4-[4-(3-pyridyl)thiazol-2-yl]phenyl]-5-(trifluoromethyl)-1,2,4-oxadiazole]	142 to 143 °C
FC(F)(F)c1nc(-c2ccc(-c3ccc(Cl)nc3)cc2)no1 [Compound D-27, 3-[4-(6-chloro-3-pyridyl)phenyl]-5-(trifluoromethyl)-1,2,4-oxadiazole]	140 to 145 °C
FC(F)(F)c1nc(-c2ccc(N3CCCCO3)cc2)no1 [Compound B-1, 2-[4-[5-(trifluoromethyl)-1,2,4-oxadiazol-3-yl]phenyl]oxazinane]	94 to 96 °C
O=C(C1CC1)N(C(=O)C1CC1)c1ccc(-c2ccc(-c3noc(C(F)(F)F)n3)cc2)cn1 [Compound D-10, N-(cyclopropanecarbonyl)-N-[5-[4-[5-(trifluoromethyl)-1,2,4-oxadiazol-3-yl]phenyl]-2-pyridyl]cyclopropane carboxamide]	150 to 155 °C
FC(F)(F)c1nc(-c2ccc(-c3cccc(N4CCOCC4)n3)cc2)no1 [Compound D-24, 4-[6-[4-[5-(trifluoromethyl)-1,2,4-oxadiazol-3-yl]phenyl]-2-pyridyl]morpholine]	100 to 105 °C

The next lines start with the values.

melting point	SMILES
120 to 125 °C	O=C(C1CC1)N(C(=O)C1CC1)c1cc(-c2ccc(-c3noc(C(F)(F)F)n3)cc2)ccn1 [Compound D-16, N-(cyclopropanecarbonyl)-N-[4-[4-[5-(trifluoromethyl)-1,2,4-oxadiazol-3-yl]phenyl]-2-pyridyl]cyclopropane carboxamide]
140 to 145 °C	O=C(Nc1cc(-c2ccc(-c3noc(C(F)(F)F)n3)cc2)ccn1)C1CC1 [Compound D-17, N-[4-[4-(5-(triftuoromethyl)-1,2,4-oxadiazol-3-yl]phenyl]-2-pyridyl]cyclopropane carboxamide]
150 to 155 °C	FC(F)(F)c1nc(-c2ccc(-c3ccc(N4CCOCC4)nc3)cc2)no1 [Compound D-23, 4-[5-[4-[5-(trifluoromethyl)-1,2,4-oxadiazol-3-yl]phenyl]-2-pyridyl]morpholine]
130 to 135 °C	CCNc1cc(-c2ccc(-c3noc(C(F)(F)F)n3)cc2)ccn1 [Compound D-9, N-ethyl-4-[4-[5-(trifluoromethyl)-1,2,4-oxadiazol-3-yl]phenyl]pyridin-2-amine]
180 to 185 °C	CCNC(=O)Nc1cc(-c2ccc(-c3noc(C(F)(F)F)n3)cc2)ccn1 [Compound D-3, 1-ethyl-3-[4-[4-[5-(trifluoromethyl)-1,2,4-oxadiazol-3-yl]phenyl]-2-pyridyl]urea]
135 to 140 °C	FC(F)(F)c1nc(-c2ccc(-c3ccc(NC4CC4)nc3)cc2)no1 [Compound D-21, N-cyclopropyl-5-[4-[5-(trifluoromethyl)-1,2,4-oxadiazol-3-yl]phenyl]pyridin-2-amine]
135 to 140 °C	O=C(Nc1ccc(-c2ccc(-c3noc(C(F)(F)F)n3)cc2)cn1)C(F)(F)F [Compound D-13, 2,2,2-trifluoro-N-[5-[4-[5-(trifluoromethyl)-1,2,4-oxadiazol-3-yl]phenyl]-2-pyridyl]acetamide]
195 to 200 °C	Nc1cc(-c2ccc(-c3noc(C(F)(F)F)n3)cc2)ccn1 [Compound D-18, 4-[4-[5-(trifluoromethyl)-1,2,4-oxadiazol-3-yl]phenyl]pyridin-2-amine]
79 to 82 °C	FC(F)(F)c1nc(-c2ccc(C3CC(C4CCCCC4)=NO3)cc2)no1 (stereo not shown) [Compound A-7, 3-[4-(3-cyclohexyl-4,5-dihydroisoxazol-5-yl)phenyl]-5-(trifluoromethyl)-1,2,4-oxadiazole]
115 to 120 °C	FC(F)(F)c1nc(-c2ccc(-c3cccc(Cl)n3)cc2)no1 [Compound D-22, 3-[4-(6-chloro-2-pyridyl)phenyl]-5-(trifluoromethyl)-1,2,4-oxadiazole]
175 to 180 °C	O=C(Nc1ccc(-c2ccc(-c3noc(C(F)(F)F)n3)cc2)cn1)C1CC1 [Compound D-11, N-[5-[4-[5-(trifluoromethyl)-1,2,4-oxadiazol-3-yl]phenyl]-2-pyridyl]cyclopropane carboxamide]
190 to 195 °C	CCNC(=O)Nc1ccc(-c2ccc(-c3noc(C(F)(F)F)n3)cc2)cn1 [Compound D-2, 1-ethyl-3-[5-[4-[5-(trifluoromethyl)-1,2,4-oxadiazol-3-yl]phenyl]-2-pyridyl]urea]
143 to 146 °C	FC(F)(F)c1nc(-c2ccc(-c3cc(C4CC4)no3)cc2)no1 [Compound C-10, 3-[4-(3-cyclopropylisoxazol-5-yl)phenyl]-5-(trifluoromethyl)-1,2,4-oxadiazole]
